In US9724351B2, “Compounds for the treatment of paramoxyvirus viral infections” (priority 2012, dated 2017):

Legend:
[1] = Cytotoxicity Determination; assay type: cell-based; conditions: human, HEp-2 cells, without addition of virus, CCK-8 readout, bins (Table 4: greater than 100 μM; Table 5: equal to or less than 100 μM and greater than 10 μM), read-out: 50% cytotoxicity concentration (CC50)
Outline: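 Uninfected cells were exposed to compounds in duplicate over a 7-point ½ dilution series starting at 100 μM final, for 5 days at 37 °C, 5% CO2. CCK-8 was then added for 3-4 h, and CC50 was calculated from optical density.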

[2] = tested on: Respiratory Syncytial Virus (RSV) long strain (ATCC#VR-26); assay: RSV Antiviral Assay (CPE reduction assay); assay type: cell-based; conditions: human respiratory syncytial virus, 120 h; HEp-2 cells infected with RSV long strain, 5 days, CCK-8 readout; bins (Table 2: less than 1 μM; Table 3: equal to or higher than 1 μM and less than 50 μM); read-out: 50% effective concentration (EC50)
Outline: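 HEp-2 cells infected with 100 TCID50 RSV long strain per well, compounds from 100 μM or 1 μM in 9-point ⅓ dilutions, duplicates, 1% DMSO. After 5 days at 37 °C, viable cells measured by CCK-8 (A450, 630 nm background); EC50 by regression on mean O.D.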

SMILES | CC50 at 5 days [1] [µM] | EC50 [2] [µM]
COc1ccc(C(=O)NCC(=O)c2ccc(OC)c(-c3ccccc3C#N)n2)cc1OC [Compound 1516] | 10 to 100 | 1 to 50
CCOc1cc(-c2nc(C(=O)CNC(=O)c3ccc(OC)c(OC)c3)ccc2OC)cc2ccccc12 [Compound 1509] | > 100 | 1 to 50
CCCC/C(=N\NC(=O)CNC(=O)c1ccc(OC)c(OC)c1)c1csc2c(F)cccc12 [Compound 400-7] | 10 to 100 | < 1
COc1cc(-c2csc3c(F)cccc23)nc(C(=O)CNC(=O)c2ccc(OC)c(OC)c2)n1 [Compound 3401] | > 100 | 1 to 50
COc1cc(C(=O)NCC(=O)c2ccc(OCC3CC3)c(-c3csc4c(F)cccc34)n2)ccc1OCCO [Compound 2617] | > 100 | < 1
COCCc1ccc(C(=O)NCC(=O)c2ccc(OC)c(-c3ccc(F)c(Cl)c3)n2)cc1OC [Compound 1331] | 10 to 100 | 1 to 50
COc1ccc(C(=O)NCC(=O)N/N=C/c2cc3ccccc3o2)cc1OC [Compound 409] | 10 to 100 | 1 to 50
COc1cc(C(=O)NCC(=O)N/N=C(\CC2CCCCC2)c2csc3c(F)cccc23)ccc1OCCO [Compound 605] | 10 to 100 | < 1
COc1ccc(C(=O)NCC(=O)c2ccc(OC)c(-c3ccc(C(=O)N4CCCCC4)cc3)n2)cc1OC [Compound 1518] | 10 to 100 | 1 to 50
CCOc1ccc(C(=O)NCC(=O)N/N=C2\CN(CC)Cc3sc4c(F)cccc4c32)cc1OC [Compound 464] | > 100 | < 1
COc1cc(C(=O)NCC(=O)c2cccc(-c3csc4c(F)cccc34)n2)ccc1OC1CC(O)C1 (centres unmarked) [Compound 1256] | 10 to 100 | < 1
CCOc1ccc(C(=O)NCC(=O)Nc2nc3cc(Cl)ccc3n2CCOC)cc1OC [Compound 911] | 10 to 100 | 1 to 50
CNCc1ccc(C(=O)NCC(=O)N/N=C(\CCOC)c2csc3c(F)cccc23)cc1OC [Compound 400-24] | > 100 | 1 to 50
COc1cc(C(=O)NCC(=O)c2cc(C(C)(C)C)cc(-c3ccc(F)c(Cl)c3)n2)ccc1OCCO [Compound 2115] | 10 to 100 | < 1
COCC/C(=N/NC(=O)CNC(=O)c1ccc(OC2COC2)c(OC)c1)c1csc2c(F)cccc12 [Compound 514B] | > 100 | < 1
COc1ccc(C(=O)NCC(=O)c2cccc(-c3csc4c(F)cccc34)c2)cc1OC [Compound 1218] | > 100 | 1 to 50
COc1cc(C(=O)NCC(=O)c2cccc(-c3csc4c(F)cccc34)n2)ccc1OCCO [Compound 1209] | 10 to 100 | < 1
COc1ccc(C(=O)NCC(=O)c2ccc(OC)c(-c3cccc(F)c3)n2)cc1OC [Compound 1527] | > 100 | 1 to 50
CCN(CC)c1ccc(C(=O)NCC(=O)N/N=C(\C)c2csc3ccccc23)cc1 [Compound 469] | 10 to 100 | 1 to 50
COc1ccc(C(=O)NCC(=O)c2ccc(OC)c(-c3ccc4ccccc4c3)n2)cc1OC [Compound 1517] | > 100 | 1 to 50

SMILES | CC50 at 5 days [1] [µM] | EC50 [2] [µM]
COCC/C(=N/NC(=O)CNC(=O)c1ccc(OC)c(OC)c1)c1csc2ccccc12 [Compound 494] | > 100 | < 1
COc1cc(C(=O)NCC(=O)c2ccc(OC)c(-c3ccc(F)c(Cl)c3)n2)ccc1OCC(N)=O [Compound 1316] | > 100 | < 1
COc1ccc(C(=O)NCC(=O)NN=C(c2ccccc2)c2ccccc2)cc1OC [Compound 440] | > 100 | 1 to 50
COc1ccc(C(=O)NCC(=O)c2ccc(OC)c(-c3cccc4c(F)cccc34)n2)cc1OC [Compound 1522] | 10 to 100 | 1 to 50
COCCOc1ccc(C(=O)NCC(=O)c2ccc(OC)c(-c3ccc(F)c(Cl)c3)n2)cc1 [Compound 1311] | > 100 | 1 to 50
COc1cc(C(=O)N[C@@H](CCO)C(=O)c2ccc(OC)c(-c3csc4c(F)cccc34)n2)ccc1OCCO [Compound 1803] | 10 to 100 | < 1
C=C(C)/C(=N\NC(=O)CNC(=O)c1ccc(OC)c(OC)c1)c1csc2ccccc12 [Compound 434] | > 100 | 1 to 50
COCC/C(=N\NC(=O)CNC(=O)c1ccc(OC2COC2)c(OC)c1)c1csc2c(F)cccc12 [Compound 514A] | > 100 | < 1
CNc1ccc2scc(/C=N/NC(=O)CNC(=O)c3ccc(OC)c(OC)c3)c2c1 [Compound 400-18] | > 100 | 1 to 50
COc1cc(C(=O)NCC(=O)c2cc(CO)cc(-c3ccc(F)c(Cl)c3)n2)ccc1OCC1CC1 [Compound 3800] | 10 to 100 | < 1
COc1cc(C(=O)NCC(=O)c2ccc(OC)c(-c3csc4ccncc34)n2)ccc1OCCO [Compound 1621] | > 100 | 1 to 50
COc1ccc(C(=O)NCC(=O)N2CCCC(c3csc4c(F)cccc34)=N2)cc1OC [Compound 3501] | 10 to 100 | < 1
COc1cc(C(=O)NCC(=O)c2ccc(OC)c(-c3cnn4ccccc34)n2)ccc1OCCO [Compound 1345] | > 100 | 1 to 50
CCCN(/N=C/c1csc2c(F)cccc12)C(=O)CNC(=O)c1ccc(OCCO)c(OC)c1 [Compound 2302] | 10 to 100 | < 1
COc1cc(C(=O)NCC(=O)N(C)C(=O)N(C)c2csc3c(F)cccc23)ccc1OCCO [Compound 2803] | > 100 | 1 to 50
COc1ccc(C(=O)NCC(=O)N(C)/N=C/c2c(C#N)sc3c(F)cccc23)cc1OCCO [Compound 2303] | > 100 | 1 to 50
CCc1cc(C(=O)CNC(=O)c2ccc(OCCO)c(OC)c2)nc(-c2coc3c(F)cccc23)c1 [Compound 2111] | > 100 | < 1
COc1ccc(C(=O)N(C)N(C)C(=O)c2cccc(-c3csc4c(F)cccc34)n2)cc1OC [Compound 3103] | 10 to 100 | 1 to 50
CCOc1ccc(C(=O)NCC(=O)N/N=C/c2c[nH]c3c(F)cccc23)cc1OC [Compound 400-27] | > 100 | 1 to 50
CCN(C)c1ccc(C(=O)NCC(=O)N/N=C(\C)c2csc3ccccc23)cc1OC [Compound 512] | 10 to 100 | 1 to 50

SMILES | CC50 at 5 days [1] [µM] | EC50 [2] [µM]
CCCC/C(=N\NC(=O)CNC(=O)c1cc(OC)c(OC)cc1Cl)c1csc2ccccc12 [Compound 247] | > 100 | 1 to 50
COc1cc(C(=O)N[C@@H](CCO)C(=O)c2ccc(OC)c(-c3ccc(F)c(C(F)(F)F)c3)n2)ccc1OCCO [Compound 1807] | > 100 | < 1
COc1ccc(C(=O)NCC(=O)N/N=C/c2cccc3ccccc23)cc1OC [Compound 402] | 10 to 100 | 1 to 50
COc1cc(C(=O)NC(C)C(=O)c2ccc(OC)c(-c3csc4c(F)cccc34)n2)ccc1OCCO (centres unmarked) [Compound 1808] | 10 to 100 | < 1
COc1cc(C(=O)NCC(=O)N/N=C(\C)c2csc3ccccc23)ccc1O [Compound 478] | 10 to 100 | 1 to 50
COc1ccc(C(=O)NCC(=O)c2csc(-c3csc4c(F)cccc34)n2)cc1OC [Compound 1210] | > 100 | 1 to 50
COc1ccc(C(=O)NCC(=O)N/N=C/c2csc3cc(F)ccc23)cc1OC [Compound 400-17] | 10 to 100 | 1 to 50
COc1cc(C(=O)NCC(=O)c2cc(OC)c(OC)c(-c3csc4c(F)cccc34)n2)ccc1OCCO [Compound 2108] | > 100 | < 1
COc1cc(C(=O)NCC(=O)N/N=C(\C)c2csc3ccccc23)ccc1OCCO [Compound 600] | > 100 | < 1
COc1cc(C(=O)NCC(=O)c2ccc(OC)c(C3=CS(=O)(=O)c4c(F)cccc43)n2)ccc1OCCO [Compound 1344] | 10 to 100 | 1 to 50
COc1ccc(C(=O)NC(C)CC(=O)c2ccc(OC)c(-c3csc4c(F)cccc34)n2)cc1OC (centres unmarked) [Compound 1801] | > 100 | 1 to 50
COc1ccc(C(=O)NCC(=O)c2nc(-c3csc4c(F)cccc34)cs2)cc1OC [Compound 1206] | 10 to 100 | 1 to 50
CCCC/C(=N\NC(=O)CNC(=O)c1ccc(OC(C)C)c(OC)c1)c1csc2ccccc12 [Compound 476] | > 100 | < 1
COc1ccc(C(=O)NCC(=O)c2ccc(OC)c(-c3ccc4cnn(C)c4c3)n2)cc1OC [Compound 1503] | 10 to 100 | 1 to 50
COc1cc(C(=O)NCC(=O)N2CCCC(c3csc4c(F)cccc34)=N2)ccc1OCCO [Compound 1101] | > 100 | < 1
COc1ccc(C(=O)NCC(=O)N/N=C(\C)c2c(C)sc3ccccc23)cc1OC [Compound 413] | 10 to 100 | 1 to 50
COc1ccc(C(=O)NCC(=O)N/N=C2\CCCc3sccc32)cc1OC [Compound 436] | > 100 | 1 to 50
COc1cc(C(=O)NCC(=O)c2cc(C)cc(-c3csc4c(F)cccc34)n2)ccc1OCCO [Compound 1217] | > 100 | < 1
